Assay results: patent publication US5776929A, “Benzodiazepine derivative” (Shionogi & Co., Ltd., priority 1993, dated 1998)
Entries after “also recorded” stand apart in the source; their conditions may differ.

Legend:
Format in all cases: in vivo, rat (male Sprague Dawley)
[1] = system: gastric damage due to stress induced by restricted water-immersion; assay: Gastric damage due to stress induced by restricted water-immersion (single administration); details: for lesion index (% to control): 10 rats
Description: (§1) Male Sprague Dawley rats weighing from 240 to 280 g were used as experimental animals.
(§2) As H2 B, famotidine, and as gastrin receptor antagonist, L-365,260 described in Example 281 of Japanese Patent Publication (KOKAI) 63-238069 (EP 167,919; EP 284,256; U.S. Pat. No. 4,820,834; U.S. Pat. No. 5,004,741)), were used. […] For administration, a suspension of 10 mg famotidine or L-365,260 in 1 ml vehicle (0.5% methyl cellulose solution) was prepared. The combined formulation is a mixture of an equal amount of each suspension.
(§3) A previously determined dose of each test compound (1.0 ml or 3.0 ml/kg) was charged in a syringe and administered orally to a rat directly into gaster using a stainless probe needle (.phi.1.2×L 80 mm) equipped to the syringe.
(1) Gastric damage due to stress induced by restricted water-immersion (single administration test)
Twenty four hour starved (ad libitum for water) male Sprague Dawley rats (270-290 g) were orally administered with a test compound and, 30 min later, were loaded with stress in the following manner. Rats were placed in a stress cage (Natsume Seisakusyo) and immersed in water tank at 23° C. upto the level of pectoral processus xiphoideus [Takagi et al, Chem. Pharm. Bull (Tokyo) 12, 465-472 (1964)]. Seven hours later, animals were withdrawn from the water tank and killed with ether. The gaster was extracted and 1% formalin solution (13 ml) was injected in it. […] The gaster was observed under anatomic microscope (x10) and longer diameter (mm) of each damages (bleeding erosion) appearing around fundic glands was measured.

gastric acid secretion = assay: Basic gastric acid secretion after interruption following continuous administration (pylorus ligation); details: for basic gastric acid secretion (in words): P<0.05
Description: as §1, §2, §3
(§4) B. Continuous administration test
(§5) (A) A group consists of animals that received vehicle (0.5% methyl cellulose solution, 1 ml/kg).
(§6) (B) A group consists of animals that received famotidine (a suspension of 10 mg famotidine in 1 ml 0.5% methyl cellulose) continuously at a dose of 10 or 30 mg/kg/day.
(§7) (C) A group consists of animals that received L-365,260 continuously at a dose of 10 mg/kg/day.
(§8) (D) A group consists of animals that received a combined formulation of famotidine and L-365,260 at a dose of 10 mg/kg/day for each compound.
(2) Basic gastric acid secretion after interruption following the continuous administration of famotidine
To a rat bred normally was administered continuously famotidine at a dose of 10 or 30 mg/kg/day for a week. After the final administration, the basis gastric acid secretion (total acid excretion) was determined according to the pylorus ligation method (4-hour-method) [Shay, H. et al., Gastroenterology, 5: 43-61 (1945)]. The determination was carried out following the final administration, […], […]
Thus, rats were subjected to laparotomy under ether anesthetization and pylorus was ligated. Four hours later, gaster was extracted under ether anaesthetization and the accumulated gastric juice was collected. After centrifugation (3000 rpm, 10 min), pH and acidity of gastric juice was determined. The acidity was measured upto pH 7.0 with 0.1N NaOH. The total acid secretion (μEq/4 hr) was calculated by multiplying acidity by the volume of juice for each animal.

[2] = system: aspirin-induced gastric mucosa damage; assay: Aspirin-induced gastric mucosa damage following continuous administration; details: for lesion index (mm^2): 10 mg/kg p.o., 7 days, aspirin 200 mg/kg after two-day interruption; for aspirin-induced gastric mucosa damage (in words): continuous administration, two-day interruption
Description: as §1, §2, §3, §4, §5, §6, §7, §8
(3) Aspirin-induced gastric mucosa damage following a continuous administration of famotidine
After two-day-interruption following a continuous administration of famotidine, aspirin (200 mg/kg) was administered to rats orally. Seven hours later, gaster was extracted under ether anesthetization and subjected to formalin treatment with 1% formalin solution. The length (mm) of gastric mucosa damage appearing around fundic glands was then measured. Lesion index was calculated by adding all the measurements. Rats had been starved for 24 hr before aspirin administration (ad libitum for water).

[3] = day 2 after 7-day treatment, 10 mg/kg/day (Table 6)
[4] = day 3 after 7-day treatment, 10 mg/kg/day (Table 6)
[5] = immediately after 7 days, 10 mg/kg/day
[6] = immediately after 7 days, 30 mg/kg/day

SMILES: Cc1cccc(NC(=O)N[C@@H]2N=C(c3ccccc3)c3ccccc3N(C)C2=O)c1 [L-365,260]
- lesion index (% to control) ([1]; 1 mg/kg p.o.): 130.4 ± 20.6 % to control
- lesion index (% to control) ([1]; 3 mg/kg p.o.): 84.7 ± 17.4 % to control
- inhibition of appearance of stress gastric damage (in words) ([1]; at either dose (1 or 3 mg/kg)): does not inhibit the appearance of stress gastric damage
- acid excretion after continuous administration alone (in words) (gastric acid secretion; alone for a week): did not differed from those obtained in control group
- total acid secretion (gastric acid secretion; [3]): 631.4 ± 147.9 μEq/4 hr
- total acid secretion (gastric acid secretion; [4]): 681.0 ± 142.9 μEq/4 hr
- lesion index (mm^2) [2]: 43.2 ± 13.7 mm^2
- aspirin-induced gastric mucosa damage (in words) [2]: the condition seemed to have tendency to deteriorate, but it is not significant

SMILES: NC(N)=Nc1nc(CSCCC(N)=NS(N)(=O)=O)cs1 [Famotidine, famotidine]
- lesion index (% to control) ([1]; 1 mg/kg p.o.): 33.4 ± 5.5 % to control
- inhibition of appearance of stress gastric damage (in words) ([1]; 3 mg/kg): inhibited the appearance significantly
- lesion index (% to control) ([1]; 3 mg/kg p.o.): 33.4 ± 5.5 % to control
- basic gastric acid secretion (in words) (gastric acid secretion; 10 mg/kg/day, after a 48-hour interruption): increased significantly
- basic gastric acid secretion (in words) (gastric acid secretion; 10 mg/kg/day, immediately after interrupting): inhibited significantly
- basic gastric acid secretion (in words) (gastric acid secretion; 30 mg/kg/day, after a 4-day interruption): increased significantly
- basic gastric acid secretion (in words) (gastric acid secretion; 30 mg/kg/day, immediately after interrupting): inhibited significantly
- increase in the basic acid secretion, acid rebound (in words) (gastric acid secretion; 2nd day after interruption following continuous administration): An increase in the basic acid secretion (acid rebound) was observed
- inhibition (%) of total acid secretion (gastric acid secretion; 24 hr after 7-day treatment, 10 mg/kg/day): -38.3%
- total acid secretion (gastric acid secretion; 24 hr after 7-day treatment, 10 mg/kg/day (Table 4)): 821.0 ± 214.2 μEq/4 hr
- inhibition (%) of total acid secretion (gastric acid secretion; 48 hr after 7-day treatment, 10 mg/kg/day): -105.7%
- total acid secretion (gastric acid secretion; 48 hr after 7-day treatment, 10 mg/kg/day (Table 4)): 948.9 ± 187.5 μEq/4 hr
- total acid secretion (gastric acid secretion; [3]): 788.4 ± 217.7 μEq/4 hr
- total acid secretion (gastric acid secretion; [4]): 682.4 ± 132.6 μEq/4 hr
- inhibition (%) of total acid secretion (gastric acid secretion; day 3 after 7-day treatment, 30 mg/kg/day): -45.3%
- inhibition (%) of total acid secretion (gastric acid secretion; day 4 after 7-day treatment, 30 mg/kg/day): -44.2%
- inhibition (%) of total acid secretion (gastric acid secretion; [5]): 61.6%
- total acid secretion (gastric acid secretion; [5]): 151.8 ± 29.8 μEg/49 hr
- inhibition (%) of total acid secretion (gastric acid secretion; [6]): 59.9%
- total acid secretion (gastric acid secretion; [6]): 158.4 ± 54.9 μEg/49 hr
- lesion index (mm^2) [2]: 67.0 ± 14.2 mm^2
- aspirin-induced gastric mucosa damage (in words) [2]: the condition deteriorated significantly; also recorded: the ulcer index got worse significantly on the 2nd day after interruption
